Reference: US20210369675A1, “ANTIMICROBIAL DRUG METHODS OF USE & THERAPEUTIC COMPOSITIONS” (priority 2017, published 2021)
“Also recorded” adds a separate entry of the source.

How the values were obtained:
Brucella melitensis = conditions: cited from earlier work
[1] = test system: Burkholderia pseudomallei; conditions: cited from earlier work
[2] = test system: Burkholderia pseudomallei; assay type: cell-based
[3] = cited from earlier work; for elimination half-life (T1/2): after a single administration of rac-ornidazole in a formulation; for AUC0-∞: after a single administration
[4] = current 300 mg capsule formulation, per product label; cited from earlier work

For trimethoprim-sulfamethoxazole, the “effectiveness of conventional antibiotics against B. melitensis” value (“effectiveness … against B. melitensis” below) (Brucella melitensis) is given as “not effective” and the “effectiveness of conventional antibiotics against B. pseudomallei” value (“effectiveness … against B. pseudomallei” for short) [1] is given as “not effective”.

In the case of CC(C)(O/N=C(\C(=O)N[C@@H]1C(=O)N2C(C(=O)[O-])=C(C[n+]3ccccc3)CS[C@H]12)c1csc(N)n1)C(=O)O [ceftazidime], the “effectiveness … against B. melitensis” value (Brucella melitensis) is given as “not effective” and the “effectiveness … against B. pseudomallei” value [1] is given as “not effective”.

In the case of Cc1ncc([N+](=O)[O-])n1CC(O)CCl (racemic) [(rac)-ornidazole, 1-chloro-3-(2-methyl-5-nitro-1H-imidazol-1-yl)propan-2-ol], the “inhibition of B. pseudomallei grown under anaerobic conditions” value [2] is reported as “inhibition; also recorded: effectively inhibited”.

In the case of Cc1ncc([N+](=O)[O-])n1C[C@H](O)CCl [(S)-ornidazole], the “elimination half-life (T1/2)” value [3] is given as “similar” and the “AUC0-∞” value [3] is given as “similar”.

For Cc1ncc([N+](=O)[O-])n1C[C@@H](O)CCl [(R)-ornidazole], the “elimination half-life (T1/2)” value [3] is given as “similar” and the “AUC0-∞” value [3] is given as “similar”.

In the case of O=C(N[C@H](CO)[C@H](O)c1ccc([N+](=O)[O-])cc1)C(Cl)Cl [chloramphenicol], the “effectiveness … against B. melitensis” value (Brucella melitensis) is given as “not effective” and the “effectiveness … against B. pseudomallei” value [1] is given as “not effective”.

For C[C@H](CCC(=O)O)[C@H]1CC[C@H]2[C@@H]3[C@@H](O)C[C@@H]4C[C@H](O)CC[C@]4(C)[C@H]3CC[C@]12C [Ursodiol, ursodeoxycholic acid], the “fraction of drug absorbed in the small intestines (small bowel)” value [4] is given as 90% and the “fraction of drug reaching the colon” value [4] is given as “less than 10%”.
